Experiment [1] concerns the target T1, rat brain farnesyl protein transferase (Rattus norvegicus, UniProt Q02293+Q04631).
T1 construct: 40-fold purified rat brain farnesyl protein transferase; from tissue; host or cells: rat brain
The experiment can be described thus: Protein:farnesyltransferase (PFT/FPT) inhibitory activity assay. It is filed as biochemical.

The test system of experiment [2] is Ras farnesylation in H-ras Me 12/+ cells. The experiment can be described thus: Gel shift assay: inhibition of Ras farnesylation in H-ras Me 12/+ cells. Conditions: 18-hour incubation, read-out: Inhibition of Ras Farnesylation (Minimum Effective Dose). It is filed as cell-based. The procedure:
(§1) Twenty-four hours after planting 2×10^6 ras-transformed cells per treatment condition, the farnesylation inhibitor is added at varying concentrations. Following an 18-hour incubation period, cells are lysed in phosphate-buffered saline containing 1% Triton X-100, 0.5% sodium deoxycholate, and 0.1% SDS, pH 7.4 in the presence of several protease inhibitors (PMSF, antipain, leupeptin, pepstatin A, and aprotinin all at 1 μg/mL). Ras protein is immunoprecipitated from the supernatants by the addition of 3 μg v-H-ras Ab-2 (Y13-259 antibody from Oncogene Science). After overnight immunoprecipitation, 30 μL of a 50% protein G-Sepharose slurry (Pharmacia) is added followed by 45-minute incubation. Pellets are resuspended in 2× tris-glycine loading buffer (Novex) containing 5% B-mercaptoethanol and then denatured by 5 minutes boiling prior to electrophoresis on 14% Tris-glycine SDS gels. Using Western transfer techniques, proteins are transferred to nitrocellulose membranes followed by blocking in blocking buffer. Upon overnight incubation with primary antibody (pan-ras Ab-2 from Oncogene Science), an antimouse HRP conjugate secondary antibody (Amersham) is employed for detection of the ras protein. Blots are developed using ECL techniques (Amersham).
(§2) The data in Table 1 show farnesyl protein transferase inhibitory activity, and activity in the gel shift assay against ras protein of selected compounds of Formula I.

The subject of experiment [3] is Ras farnesylation in H-ras-NIH3T3 cells. In words: Gel shift assay: inhibition of Ras farnesylation in H-ras-NIH3T3 cells. Conditions: 18-hour incubation, read-out: Inhibition of Ras Farnesylation (Minimum Effective Dose). It is filed as cell-based. The procedure: as §1, §2
Where [4] appears, read: Hepes (without 5 mM phosphate), read-out: Farnesyl Protein Transferase Inhibition, Hepes, IC50.
[5] abbreviates: Hepes/5 mM PO4^-3, pH 7.4, read-out: Farnesyl Protein Transferase Inhibition, Hepes/5 mM PO4^-3, IC50.

Each structure is given as a SMILES string. Counter-ions that a name gives are not always drawn. Like-named read-outs stand apart in the source and are kept apart here.

Consider `CCOC(=O)[C@H](Cc1c[nH]cn1)NC(=O)C(Cc1cccc2ccccc12)Cc1cccc2ccccc12` [Example 5, (S)-3-(1H-Imidazol-4-yl)-2-(3-naphthalen-1-yl-2-naphthalen-1-ylmethyl-propionylamino)-propionic acid, ethyl ester], for which the IC50 in experiment [1] (setting [4]) and in experiment [1] (setting [5]) was 130 nM throughout. Further, in experiment [2], the minimal effective concentration was determined as 2.5 µM.
For `O=C(N[C@@H](Cc1c[nH]cn1)C(=O)NCCc1c[nH]cn1)C(Cc1cccc2ccccc12)Cc1cccc2ccccc12` [Example 27, (S)-N-{2-(1H-Imidazol-4-yl)-1-[2-(1H-imidazol-4-yl)-ethylcarbamoyl]-ethyl}-3-naphthalen-1-yl-2-naphthalen-1-ylmethyl-propionamide], the IC50 was found to be 4800 nM in experiment [1] (setting [4]) and 3900 nM in experiment [1] (setting [5]). Moreover, the minimal effective concentration in experiment [2] amounted to 10 µM.
The like results for `COC(=O)[C@H](Cc1c[nH]cn1)NC(=O)C(CC1CCCC2CCCCC21)CC1CCCC2CCCCC21` (stereo partly drawn) [Example 36, (S)-2-[3-(Decahydro-naphthalen-1-yl)-2-(decahydro-naphthalen-1-ylmethyl)-propionylamino]-3-(1H-imidazol-4-yl)-propionic acid, methyl ester] were, in that order, 310 nM, 370 nM and 25 µM.
In the case of `O=C(N[C@H](CO)Cc1c[nH]cn1)C(Cc1cccc2ccccc12)Cc1cccc2ccccc12` [Example 52, (S)-N-[1-Hydroxymethyl-2-(1H-imidazol-4-yl)-ethyl]-3-naphthalen-1-yl-2-naphthalen-1-ylmethyl-propionamide], the IC50 in experiment [1] (setting [4]) was determined as 3000 nM; in experiment [1] (setting [5]), 3400 nM. The minimal effective concentration in experiment [3] was 25 µM.
For `O=C(N[C@@H](Cc1c[nH]cn1)C(=O)OCCc1ccccc1)C(Cc1cccc2ccccc12)Cc1cccc2ccccc12` [Example 53, (S)-3-(1H-Imidazol-4-yl)-2-(3-naphthalen-1-yl-2-naphthalen-1-ylmethyl-propionylamino)-propionic acid, phenethyl ester], the IC50 in experiment [1] (setting [4]) came to 70 nM; in experiment [1] (setting [5]), 60 nM. Besides, in experiment [3], the minimal effective concentration was found to be 25 µM.
The matching figures for `N#CCCNC(=O)[C@H](Cc1c[nH]cn1)NC(=O)C(Cc1cccc2ccccc12)Cc1cccc2ccccc12` [Example 41, (S)-N-[1-(2-Cyano-ethylcarbamoyl)-2-(1H-imidazol-4-yl)-ethyl]-3-naphthalen-1-yl-2-naphthalen-1-ylmethyl-propionamide]: 970 nM, 710 nM and 5 µM.
The matching figures for `N#CCCOC(=O)[C@H](Cc1c[nH]cn1)NC(=O)C(Cc1cccc2ccccc12)Cc1cccc2ccccc12` [Example 17, (S)-3-(1H-Imidazol-4-yl)-2-(3-naphthalen-1-yl-2-naphthalen-1-ylmethyl-propionylamino)-propionic acid, 2-cyanoethyl ester]: 80 nM, 70 nM and 10 µM.
On to `O=C(N[C@@H](Cc1c[nH]cn1)C(=O)NCCOCc1ccccc1)C(Cc1cccc2ccccc12)Cc1cccc2ccccc12` [Example 23, (S)-N-[1-(2-Benzyloxy-ethylcarbamoyl)-2-(1H-imidazol-4-yl)-ethyl]-3-naphthalen-1-yl-2-naphthalen-1-ylmethyl-propionamide], for which the values for the IC50 in experiment [1] (setting [4]) and in experiment [1] (setting [5]) were 740 nM and 550 nM, respectively. In experiment [2], the minimal effective concentration was found to be 5 µM.
The matching figures for `COC(=O)[C@H](Cc1c[nH]cn1)NC(=O)C(Cc1cccc2c1CCCC2)Cc1cccc2c1CCCC2` [Example 37, (S)-3-(1H-Imidazol-4-yl)-2-[3-(5,6,7,8-tetrahydro-naphthalen-1-yl)-2-(5,6,7,8-tetrahydro-naphthalen-1-ylmethyl)-propionylamino]-propionic acid, methyl ester]: 420 nM, 180 nM and 10 µM.
In the case of `COC(=O)[C@H](Cc1c[nH]cn1)NC(=O)C(Cc1ccccc1)Cc1cccc2ccccc12` (stereo partly drawn) [Example 65, (S)-2-(2-Benzyl-3-naphthalen-1-yl-propionylamino)-3-(1H-imidazol-4-yl)-propionic acid, methyl ester], the figures for the IC50 in experiment [1] (setting [4]) and in experiment [1] (setting [5]) were 1600 nM and 2900 nM, respectively. In addition, the minimal effective concentration in experiment [3] was found to be 25 µM.
For the molecule `CNC(=O)[C@H](Cc1cncn1C)NC(=O)C(Cc1cccc2ccccc12)Cc1cccc2ccccc12` [Example 64, (S)-N-[1-Methylcarbamoyl-2-(3-methyl-3H-imidazol-4-yl)-ethyl]-3-naphthalen-1-yl-2-naphthalen-1-ylmethyl-propionamide], the IC50 in experiment [1] (setting [4]) stood at 610 nM; in experiment [1] (setting [5]) it was 460 nM.
With `O=C(N[C@@H](Cc1c[nH]cn1)C(=O)OCCOCc1ccccc1)C(Cc1cccc2ccccc12)Cc1cccc2ccccc12` [Example 18, (S)-3-(1H-Imidazol-4-yl)-2-(3-naphthalen-1-yl-2-naphthalen-1-ylmethyl-propionylamino)-propionic acid, 2-benzyloxyethyl ester], the IC50 in experiment [1] (setting [4]) amounted to 570 nM; in experiment [1] (setting [5]), 540 nM.
The like results for `O=C(N[C@@H](Cc1c[nH]cn1)C(=O)OC1CCCCC1)C(Cc1cccc2ccccc12)Cc1cccc2ccccc12` [Example 11, (S)-3-(1H-Imidazol-4-yl)-2-(3-naphthalen-1-yl-2-naphthalen-1-ylmethyl-propionylamino)-propionic acid, cyclohexyl ester] were, in that order, 20000 nM and 14000 nM.
With `N#CCOC(=O)[C@H](Cc1c[nH]cn1)NC(=O)C(Cc1cccc2ccccc12)Cc1cccc2ccccc12` [Example 58, (S )-3-(1H-Imidazol-4-yl)-2-(3-naphthalen-1-yl-2-naphthalen-1-ylmethyl-propionylamino)-propionic acid, cyanomethyl ester], the IC50 in experiment [1] (setting [4]) stood at 400 nM; in experiment [1] (setting [5]) it was 510 nM.
`C=CCOC(=O)[C@H](Cc1c[nH]cn1)NC(=O)C(Cc1cccc2ccccc12)Cc1cccc2ccccc12` [Example 15, (S)-3-(1H-Imidazol-4-yl)-2-(3-naphthalen-1-yl-2-naphthalen-1-ylmethyl-propionylamino)-propionic acid, allyl ester]: the IC50 in experiment [1] (setting [4]) was 400 nM; in experiment [1] (setting [5]) it was 200 nM. The minimal effective concentration in experiment [3] came to 25 µM.
Turning to `CCN(CC)CCOC(=O)[C@H](Cc1c[nH]cn1)NC(=O)C(Cc1cccc2ccccc12)Cc1cccc2ccccc12` [Example 21, (S)-3-(1H-Imidazol-4-yl)-2-(3-naphthalen-1-yl-2-naphthalen-1-ylmethyl-propionylamino)-propionic acid, 2-diethylamino-ethyl ester], the IC50 in experiment [1] (setting [4]) turned out to be 21000 nM; in experiment [1] (setting [5]), 9000 nM.
In the case of `N#CCCCOC(=O)[C@H](Cc1c[nH]cn1)NC(=O)C(Cc1cccc2ccccc12)Cc1cccc2ccccc12` [Example 54, (S)-3-(1H-Imidazol-4-yl)-2-(3-naphthalen-1-yl-2-naphthalen-1-ylmethyl-propionyiamino)-propionic acid, 3-cyano-propyl ester], the IC50 in experiment [1] (setting [4]) amounted to 440 nM; in experiment [1] (setting [5]) it was 370 nM.
Turning to `O=C(N[C@@H](Cc1c[nH]cn1)C(=O)OCc1ccsc1)C(Cc1cccc2ccccc12)Cc1cccc2ccccc12` [Example 20, (S)-3-(1H-Imidazol-4-yl)-2-(3-naphthalen-1-yl-2-naphthalen-1-ylmethyl-propionylamino)-propionic acid, thiophen-3-ylmethyl ester], the IC50 in experiment [1] (setting [4]) is 3500 nM; in experiment [1] (setting [5]), 2400 nM.
The like results for `O=C(N[C@@H](Cc1c[nH]cn1)C(=O)NCCc1ccccc1)C(Cc1cccc2ccccc12)Cc1cccc2ccccc12` [Example 50] were, in that order, 4800 nM and 6000 nM.
In the case of `COC(=O)[C@H](Cc1c[nH]cn1)N(C)C(=O)C(Cc1cccc2ccccc12)Cc1cccc2ccccc12` [Example 51, (S)-3-(1H-Imidazol-4-yl-2-[methyl-(3-naphthalen-1-yl-2-naphthalen-1-ylmethyl-propionyl)-amino]-propionic acid, methyl ester, trifluoroacetate], the IC50 in experiment [1] (setting [4]) worked out at 2000 nM; in experiment [1] (setting [5]) it was 2200 nM. Also, the minimal effective concentration in experiment [3] amounted to 5 µM.
For `N#CCCOC(=O)[C@H](Cc1c[nH]cn1)NC(=O)C(CC1CCCC2CCCCC21)CC1CCCC2CCCCC21` (stereo partly drawn) [Example 45, (S)-2-[3-(Decahydro-naphthalen-1-yl)-2-(decahydro-naphthalen-1-ylmethyl)-propionylamino]-3-(1H-imidazol-4-yl)-propionic acid, 2-cyano-ethyl ester], the IC50 in experiment [1] (setting [4]) was found to be 490 nM; in experiment [1] (setting [5]), 320 nM.
Take `CCCCOC(=O)[C@H](Cc1c[nH]cn1)NC(=O)C(Cc1cccc2ccccc12)Cc1cccc2ccccc12` [Example 9, (S)-3-(1H-Imidazol-4-yl)-2-(3-naphthalen-1-yl-2-naphthalen-1-ylmethyl-propionylamino)-propionic acid, butyl ester]: the IC50 in experiment [1] (setting [4]) was determined as 1300 nM; in experiment [1] (setting [5]), 1100 nM.

(Values after patent US6008372A, “Substituted dinaphthylmethyl and diheteroarylmethylacetyl histidine inhibitors of protein farnesyltransferase” (Warner-Lambert Company, priority 1998, dated 1999).)
